In PubChem BioAssay (NCI):
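Where inhibition never reached the appropriate level, the endpoint shown equals the highest concentration tested. Otherwise, values were interpolated linearly from a five-concentration, 48-hour dose response in 96-well plates. At the TGI there is no net growth.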

Experiments:
Assay in all cases: inhibition of tumour cell growth, NCI panel, 48 h
A498 renal = system: A498 renal
A549 NSCLC = system: A549 NSCLC
ACHN renal = system: ACHN renal
CAKI-1 renal = system: CAKI-1 renal
DLD-1 colon = system: DLD-1 colon
DMS 114 small cell lung = system: DMS 114 small cell lung
HCC-2998 colon = system: HCC-2998 colon
HCT-116 colon = system: HCT-116 colon
HCT-15 colon = system: HCT-15 colon
HL-60(TB) leukemia = system: HL-60(TB) leukemia
HOP-18 NSCLC = system: HOP-18 NSCLC
HOP-62 NSCLC = system: HOP-62 NSCLC
HOP-92 NSCLC = system: HOP-92 NSCLC
HT29 colon = system: HT29 colon
KM12 colon = system: KM12 colon
LOX IMVI melanoma = system: LOX IMVI melanoma
LXFL 529 NSCLC = system: LXFL 529 NSCLC
M14 melanoma = system: M14 melanoma
MALME-3M melanoma = system: MALME-3M melanoma
MOLT-4 leukemia = system: MOLT-4 leukemia
NCI-H226 lung = system: NCI-H226 lung
NCI-H23 lung = system: NCI-H23 lung
NCI-H460 lung = system: NCI-H460 lung
NCI-H522 lung = system: NCI-H522 lung
OVCAR-4 ovarian = system: OVCAR-4 ovarian
OVCAR-5 ovarian = system: OVCAR-5 ovarian
RPMI-8226 leukemia = system: RPMI-8226 leukemia
RXF 393 renal = system: RXF 393 renal
RXF-631 renal = system: RXF-631 renal
SF-268 CNS = system: SF-268 CNS
SF-295 CNS = system: SF-295 CNS
SK-MEL-2 melanoma = system: SK-MEL-2 melanoma
SK-MEL-28 melanoma = system: SK-MEL-28 melanoma
SK-MEL-5 melanoma = system: SK-MEL-5 melanoma
SK-OV-3 ovarian = system: SK-OV-3 ovarian
SN12C renal = system: SN12C renal
SNB-19 CNS = system: SNB-19 CNS
SNB-75 CNS = system: SNB-75 CNS
SNB-78 CNS = system: SNB-78 CNS
SR leukemia = system: SR leukemia
SW-620 colon = system: SW-620 colon
TK-10 renal = system: TK-10 renal
U251 CNS = system: U251 CNS
UACC-257 melanoma = system: UACC-257 melanoma
XF 498 CNS = system: XF 498 CNS
786-0 renal = system: 786-0 renal
CCRF-CEM leukemia = system: CCRF-CEM leukemia
COLO 205 colon = system: COLO 205 colon
EKVX NSCLC = system: EKVX NSCLC
IGROV1 ovarian = system: IGROV1 ovarian
K-562 leukemia = system: K-562 leukemia
KM20L2 colon = system: KM20L2 colon
M19-MEL melanoma = system: M19-MEL melanoma
OVCAR-3 ovarian = system: OVCAR-3 ovarian
OVCAR-8 ovarian = system: OVCAR-8 ovarian
SF-539 CNS = system: SF-539 CNS
UACC-62 melanoma = system: UACC-62 melanoma
UO-31 renal = system: UO-31 renal

CN(C)c1ccc(C2CC(=O)C(C#N)=C(c3ccccc3)NN2C)cc1 (stereo not drawn)
TGI (A498 renal): > 100 µM
TGI (A549 NSCLC): > 100 µM
TGI (ACHN renal): > 100 µM
TGI (CAKI-1 renal): > 100 µM
TGI (DLD-1 colon): > 100 µM
TGI (DMS 114 small cell lung): > 100 µM
TGI (HCC-2998 colon): > 100 µM
TGI (HCT-116 colon): > 100 µM
TGI (HCT-15 colon): 32.5 µM
TGI (HL-60(TB) leukemia): 19.9 µM
TGI (HOP-18 NSCLC): > 100 µM
TGI (HOP-62 NSCLC): 62.5 µM
TGI (HOP-92 NSCLC): > 100 µM
TGI (HT29 colon): 24.5 µM
TGI (KM12 colon): > 100 µM
TGI (LOX IMVI melanoma): > 100 µM
TGI (LXFL 529 NSCLC): > 100 µM
TGI (M14 melanoma): 35.5 µM
TGI (MALME-3M melanoma): > 100 µM
TGI (MOLT-4 leukemia): > 100 µM
TGI (NCI-H226 lung): > 100 µM
TGI (NCI-H23 lung): > 100 µM
TGI (NCI-H460 lung): 36.9 µM
TGI (NCI-H522 lung): 28.5 µM
TGI (OVCAR-4 ovarian): > 100 µM
TGI (OVCAR-5 ovarian): > 100 µM
TGI (RPMI-8226 leukemia): > 100 µM
TGI (RXF 393 renal): > 100 µM
TGI (RXF-631 renal): > 100 µM
TGI (SF-268 CNS): > 100 µM
TGI (SF-295 CNS): > 100 µM
TGI (SK-MEL-2 melanoma): 57.2 µM
TGI (SK-MEL-28 melanoma): > 100 µM
TGI (SK-MEL-5 melanoma): 11.9 µM
TGI (SK-OV-3 ovarian): > 100 µM
TGI (SN12C renal): > 100 µM
TGI (SNB-19 CNS): > 100 µM
TGI (SNB-75 CNS): 7.59 µM
TGI (SNB-78 CNS): > 100 µM
TGI (SR leukemia): > 100 µM
TGI (SW-620 colon): > 100 µM
TGI (TK-10 renal): > 100 µM
TGI (U251 CNS): > 100 µM
TGI (UACC-257 melanoma): > 100 µM
TGI (XF 498 CNS): 38.3 µM

COc1ccc(-c2onc(-c3c(C)cc(C)cc3C)c2C2=NCCCN2)cc1
TGI (786-0 renal): > 100 µM
TGI (A549 NSCLC): > 100 µM
TGI (ACHN renal): > 100 µM
TGI (CAKI-1 renal): 44.8 µM
TGI (CCRF-CEM leukemia): > 100 µM
TGI (COLO 205 colon): > 100 µM
TGI (DLD-1 colon): > 100 µM
TGI (EKVX NSCLC): > 100 µM
TGI (HCC-2998 colon): > 100 µM
TGI (HCT-116 colon): > 100 µM
TGI (HCT-15 colon): > 100 µM
TGI (HL-60(TB) leukemia): 38.6 µM
TGI (HOP-18 NSCLC): > 100 µM
TGI (HOP-62 NSCLC): > 100 µM
TGI (HT29 colon): > 100 µM
TGI (IGROV1 ovarian): > 100 µM
TGI (K-562 leukemia): > 100 µM
TGI (KM12 colon): > 100 µM
TGI (KM20L2 colon): > 100 µM
TGI (LOX IMVI melanoma): > 100 µM
TGI (LXFL 529 NSCLC): > 100 µM
TGI (M14 melanoma): 40.8 µM
TGI (M19-MEL melanoma): > 100 µM
TGI (MALME-3M melanoma): > 100 µM
TGI (MOLT-4 leukemia): > 100 µM
TGI (NCI-H226 lung): > 100 µM
TGI (NCI-H23 lung): > 100 µM
TGI (NCI-H460 lung): > 100 µM
TGI (NCI-H522 lung): 35.5 µM
TGI (OVCAR-3 ovarian): > 100 µM
TGI (OVCAR-4 ovarian): > 100 µM
TGI (OVCAR-5 ovarian): > 100 µM
TGI (OVCAR-8 ovarian): > 100 µM
TGI (RPMI-8226 leukemia): 86.5 µM
TGI (RXF 393 renal): > 100 µM
TGI (RXF-631 renal): > 100 µM
TGI (SF-268 CNS): > 100 µM
TGI (SF-295 CNS): 56.6 µM
TGI (SF-539 CNS): 53.7 µM
TGI (SK-MEL-2 melanoma): 97.7 µM
TGI (SK-MEL-28 melanoma): > 100 µM
TGI (SK-MEL-5 melanoma): 60.9 µM
TGI (SK-OV-3 ovarian): > 100 µM
TGI (SN12C renal): > 100 µM
TGI (SNB-19 CNS): > 100 µM
TGI (SNB-78 CNS): > 100 µM
TGI (SR leukemia): > 100 µM
TGI (SW-620 colon): > 100 µM
TGI (U251 CNS): 57.9 µM
TGI (UACC-257 melanoma): 70.1 µM
TGI (UACC-62 melanoma): > 100 µM
TGI (UO-31 renal): > 100 µM
TGI (XF 498 CNS): > 100 µM
